In patent publication US20130267588A1, “HYDROXYTYROSOL ETHERS” (FUNDACIO IMIM, priority 2010, published 2013):
Where two headings read alike, the source gives them in different places.

Experiments:
male Wistar rats = test: Acute intake experiment in animals fasting for 24 hours; format: in vivo, rat; settings: rats fasted 24 hours, food given 30 min after injection, n=8
Method: All the in vivo experiments were performed using male Wistar rats weighing 200-500 g. The animals were housed in individual cages in a room with controlled temperature (23° C.) and humidity (50%) with a 12/12 light and dark cycle. The animals had access to water and food ad libitum except in specific experimental methods. The animals were manipulated once a day for this two days before the experimental sessions. All the products were dissolved in a mixture of DMSO (5%), Tween 60 (5%)/saline (90%). The in vivo experiments included the analysis of intake and effects on general behavior. None of the assayed compounds altered the general behavior of the animal but some reduced the animal's appetite (FIGS. 1 to 8).
The acute effect on the intake of all the products was tested in animals fasting for 24 hours.
Thirty minutes after injection, previously weighed food was put in the cage. The food was weighed 30, 60, 120 and 240 minutes after starting the test. All the intake experiments were performed with groups of 8 animals (n=8) (FIGS. 1 to 8). […] The compounds (Z)-1-(2-phenylethoxy)octadec-9-ene (Example 3, FIG. 1) and (Z)-1-(2-(3,4-methylenedioxyphenyl)ethoxy)octadec-9-ene (Example 2, FIG. 3) reduced intake by about 25%. All the compounds had long-term effects, the reduction of intake being significant 4 hours after administration.

CB1 receptor = target: T1, CB1 receptor (Rattus norvegicus, UniProt P20272); test: Ligand-receptor assay for the CB1 receptor, displacement of [3H] SR141716; format: binding; settings: rat cerebellum membranes
T1 construct: displace [^3H]; from tissue; host or cells: rat cerebellum membranes
Method: The ligand-receptor assay for the CB1 receptor evaluates the capacity of the synthesized compounds to displace [^3H]
The ligand-receptor assay was performed using the CB1 labeled antagonist, [^3H] […] 450 μL of pH-regulating solution A (50 mM Tris pH=7.4 with 0.5% bovine serum albumin (BSA)), 100-200 μg rat cerebellum membranes, the diluted product and the labeled CB1 antagonist, [^3H] […] After incubating for […] at 37° C., the reaction was stopped with 1 mL of pH-regulating solution A. The mixture was centrifuged at 5000 rpm for 5 minutes. The supernatant was discarded and the pellet washed with another 1 mL of pH-regulating solution A, centrifuged and the supernatant one again was discarded. Scintillation liquid was added and the samples were read in a beta particle counter (Liquid Scintillation Analyzer, Tri-Carb 2100 TR, PACKARD, Packard Bioscience Company).

LDL = test: Conjugated dienes experiment, copper-induced LDL oxidation; format: biochemical, human; settings: compounds at 0.5, 1 and 3 μM
Method: Blood from healthy, fasting volunteers is collected in tubes containing 1 g/L of EDTA. The plasma is prepared by centrifugation at 1,000 g and 4° C. for 15 minutes. LDL is isolated by sequential ultracentrifugation. Native LDL is dialyzed by size exclusion chromatography in Sephadex G25 columns (Pharmacia, Uppsala, Sweden), with 2.7 ml of 0.01 mol pH 7.4 phosphate buffer (PB) at 4° C. The apolipoprotein B100 content is determined by immunoturbidimetry (ABX Diagnostics—Montpellier, France).
Dialyzed LDL (final concentration of 0.06 g of Apo-B/L) in PB at a final volume of 150 μL was incubated in a […] ELISA plate (flat bottom, transparent to UV, Corning®) with 10 μL of methanol in the presence or absence (control) of the compounds object of the study. 10 μL of a 100 μM copper sulfate solution (final concentration of […]) are then added. To minimize evaporation during prolonged incubation periods, 10 μL of mineral oil (Sigma-Aldrich) are added on the surface of the reaction mixture. […] The absorbance at 234 nm is continuously monitored every 15 minutes for 24 hours in an Infinite M200 plate reader (TECAN IBERICA, Männedorf, Switzerland). The controls and the samples (containing concentrations of the compounds to be assayed of 0.5, 1 and 3 μM) were evaluated in the same assay in duplicate and each experiment was repeated three times. […]

T1 sequence (P20272 whole entry): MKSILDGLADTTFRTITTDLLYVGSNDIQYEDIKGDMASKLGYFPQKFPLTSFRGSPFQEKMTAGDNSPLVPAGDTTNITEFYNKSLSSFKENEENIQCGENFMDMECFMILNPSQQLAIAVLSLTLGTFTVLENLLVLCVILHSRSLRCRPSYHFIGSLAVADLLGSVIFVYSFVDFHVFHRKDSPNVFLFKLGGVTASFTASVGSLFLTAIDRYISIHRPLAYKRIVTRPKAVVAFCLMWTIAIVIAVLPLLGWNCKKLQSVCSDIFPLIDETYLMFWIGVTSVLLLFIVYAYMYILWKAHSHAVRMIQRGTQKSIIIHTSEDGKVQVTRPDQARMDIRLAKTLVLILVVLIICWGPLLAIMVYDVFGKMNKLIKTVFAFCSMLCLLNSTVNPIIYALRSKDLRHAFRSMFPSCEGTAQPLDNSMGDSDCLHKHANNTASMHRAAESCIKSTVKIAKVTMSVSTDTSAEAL

CB1 Ki (M) (CB1 receptor)	CB1 pKi (CB1 receptor)	Compound	reduction of intake with respect to the control group (male Wistar rats)	Ki (CB1 receptor; read-out: CB1 Ki) [µM]	Ki (CB1 receptor; read-out: CB1 pKi (converted)) [µM]	LDL antioxidant activity (lag-time until formation of conjugated dienes) (LDL)
No affinity	No affinity	CCCCCCCC/C=C\CCCCCCCCOCCc1ccc2c(c1)OCO2 [Example 2, (Z)-1-(2-(3,4-methylenedioxyphenyl)ethoxy)octadec-9-ene]	about 25%	–	–	–
No affinity	No affinity	CCCCCCCC/C=C\CCCCCCCCOCCc1ccccc1 [Example 3, (Z)-1-(2-phenylethoxy)octadec-9-ene]	about 25%	–	–	–
–	–	CCCCC/C=C\C/C=C\CCCCCCCCOCCc1ccc2c(c1)OCO2 [Example 5, (9Z,12Z)-1-(2-(3,4-methylenedioxyphenyl)ethoxy)-octadeca-9,12-diene]	–	22.5	–	–
–	–	CCCCC/C=C\C/C=C\CCCCCCCCOCCc1ccc(O)c(O)c1 [Example 10, (9Z,12Z)-1-(2-(3,4-dihydroxyphenyl)ethoxy)-octadeca-9,12-diene]	50%	7.49	7.59	activity similar to that of hydroxytyrosol at the three assayed concentrations
